Columns and labels:
Assay type in all cases: in vivo
[1] = tested on: redroot pigweed (Amaranthus retroflexus, AMARE); assay: Pre-emerge test, greenhouse herbicide activity screening; conditions: rated 14 days after application, 0 = no damage, 100 = complete death
How it was run: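 Compounds in acetone were track-sprayed at 15-1000 g ai/ha (187 l/ha) on sandy loam pots: pre-emerge one day after seeding, post-emerge at 2-3 leaf stage with 0.25% v/v non-ionic surfactant. Phytotoxicity was rated 14 days later on a 0 (no damage) to 100 (complete death) scale.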

[2] = tested on: velvetleaf (Abutilon theophrasti, ABUTH); assay: as above; conditions: rated 14 days after application, 0 = no damage, 100 = complete death
How it was run: (§1)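 Plants grown in 10 cm pots of sandy loam mix received acetone-dissolved compounds through a moving flat-fan nozzle. Doses ranged from 15 to 1000 g ai/ha. Pre-emerge pots were seeded one day earlier, post-emerge pots 8–21 days earlier. Fourteen days on, each pot was graded 0–100 for damage.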

[3] = tested on: johnsongrass (Sorghum halepense, SORHA); assay: as above; conditions: rated 14 days after application, 0 = no damage, 100 = complete death
How it was run: as §1

[4] = tested on: lambsquarters (Chenopodium album, CHEAL); assay: as above; conditions: rated 14 days after application, 0 = no damage, 100 = complete death
How it was run: as §1

[5] = tested on: common ragweed (Ambrosia artemisizfolia L., AMBEL); assay: as above; conditions: rated 14 days after application, 0 = no damage, 100 = complete death
How it was run: as §1

[6] = tested on: barnyardgrass (Echinochloa crus-galli, ECHCG); assay: as above; conditions: rated 14 days after application, 0 = no damage, 100 = complete death
How it was run: as §1

[7] = tested on: green foxtail (Setaria viridis, SETVI); assay: as above; conditions: rated 14 days after application, 0 = no damage, 100 = complete death
How it was run: as §1

[8] = tested on: large crabgrass (Digitaria sanguinalis, DIGSA); assay: as above; conditions: rated 14 days after application, 0 = no damage, 100 = complete death
How it was run: as §1

[9] = tested on: sicklepod (Cassia obtusifolia, CASOB); assay: as above; conditions: rated 14 days after application, 0 = no damage, 100 = complete death
How it was run: as §1

[10] = tested on: ivyleaf morningglory (Ipomoea hederacea, IPOHE); assay: as above; conditions: rated 14 days after application, 0 = no damage, 100 = complete death
How it was run: as §1

[11] = tested on: velvetleaf (Abutilon theophrasti, ABUTH); assay: Post-emerge test, greenhouse herbicide activity screening; conditions: post-emerge, 14 days after application, rating scale 0-100
How it was run: (§2)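 Herbicidal damage is scored 0 (none) to 100 (complete plant death) two weeks after a simulated field spray. Rates span 15–1000 g ai/ha, delivered in acetone at 187 l/ha. For post-emergence treatments, plants have 2–3 leaves and the spray carries 0.25% v/v non-ionic surfactant.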

[12] = tested on: johnsongrass (Sorghum halepense, SORHA); assay: as above; conditions: post-emerge, 14 days after application, rating scale 0-100
How it was run: as §2

[13] = tested on: redroot pigweed (Amaranthus retroflexus, AMARE); assay: as above; conditions: post-emerge, 14 days after application, rating scale 0-100
How it was run: as §2

[14] = tested on: lambsquarters (Chenopodium album, CHEAL); assay: as above; conditions: post-emerge, 14 days after application, rating scale 0-100
How it was run: as §2

[15] = tested on: barnyardgrass (Echinochloa crus-galli, ECHCG); assay: as above; conditions: post-emerge, 14 days after application, rating scale 0-100
How it was run: as §2

[16] = tested on: green foxtail (Setaria viridis, SETVI); assay: as above; conditions: post-emerge, 14 days after application, rating scale 0-100
How it was run: as §2

[17] = tested on: large crabgrass (Digitaria sanguinalis, DIGSA); assay: as above; conditions: post-emerge, 14 days after application, rating scale 0-100
How it was run: as §2

[18] = tested on: sicklepod (Cassia obtusifolia, CASOB); assay: as above; conditions: post-emerge, 14 days after application, rating scale 0-100
How it was run: as §2

[19] = tested on: ivyleaf morningglory (Ipomoea hederacea, IPOHE); assay: as above; conditions: post-emerge, 14 days after application, rating scale 0-100
How it was run: as §2

Cc1c(Cl)cc(F)c(-n2c(=O)cc(C(F)(F)F)n(C)c2=O)c1NC(=O)c1ccc2ccccc2c1 [Compound 2-122, 3-[4-chloro-6-fluoro3-methyl-2-(2-naphthoyl)aminophenyl]-1-methyl-6-trifluoromethyl-2,4(1H, 3H)-pyrimidinedione]
Pre-emerge Herbicidal Activity, phytotoxicity rating (0-100), AMARE ([1]; 63 g ai/ha): 100
Pre-emerge Herbicidal Activity, phytotoxicity rating (0-100), AMARE ([1]; 250 g ai/ha): 100
Pre-emerge Herbicidal Activity, phytotoxicity rating (0-100), ABUTH ([2]; 63 g ai/ha): 100
Pre-emerge Herbicidal Activity, phytotoxicity rating (0-100), ABUTH ([2]; 250 g ai/ha): 100
Pre-emerge Herbicidal Activity, phytotoxicity rating (0-100), SORHA ([3]; 63 g ai/ha): 30
Pre-emerge Herbicidal Activity, phytotoxicity rating (0-100), SORHA ([3]; 250 g ai/ha): 60
Pre-emerge Herbicidal Activity, phytotoxicity rating (0-100), CHEAL ([4]; 63 g ai/ha): 100
Pre-emerge Herbicidal Activity, phytotoxicity rating (0-100), CHEAL ([4]; 250 g ai/ha): 100
Pre-emerge Herbicidal Activity, phytotoxicity rating (0-100), AMBEL ([5]; 63 g ai/ha): 30
Pre-emerge Herbicidal Activity, phytotoxicity rating (0-100), AMBEL ([5]; 250 g ai/ha): 90
Pre-emerge Herbicidal Activity, phytotoxicity rating (0-100), ECHCG ([6]; 63 g ai/ha): 20
Pre-emerge Herbicidal Activity, phytotoxicity rating (0-100), ECHCG ([6]; 250 g ai/ha): 80
Pre-emerge Herbicidal Activity, phytotoxicity rating (0-100), SETVI ([7]; 63 g ai/ha): 80
Pre-emerge Herbicidal Activity, phytotoxicity rating (0-100), SETVI ([7]; 250 g ai/ha): 100
Pre-emerge Herbicidal Activity, phytotoxicity rating (0-100), DIGSA ([8]; 63 g ai/ha): 100
Pre-emerge Herbicidal Activity, phytotoxicity rating (0-100), DIGSA ([8]; 250 g ai/ha): 100
Pre-emerge Herbicidal Activity, phytotoxicity rating (0-100), CASOB ([9]; 63 g ai/ha): 30
Pre-emerge Herbicidal Activity, phytotoxicity rating (0-100), CASOB ([9]; 250 g ai/ha): 50
Pre-emerge Herbicidal Activity, phytotoxicity rating (0-100), IPOHE ([10]; 63 g ai/ha): 30
Pre-emerge Herbicidal Activity, phytotoxicity rating (0-100), IPOHE ([10]; 250 g ai/ha): 90
phytotoxicity rating ABUTH ([11]; 63 g ai/ha): 100
phytotoxicity rating ABUTH ([11]; 250 g ai/ha): 100
phytotoxicity rating SORHA ([12]; 63 g ai/ha): 30
phytotoxicity rating SORHA ([12]; 250 g ai/ha): 60
phytotoxicity rating AMARE ([13]; 63 g ai/ha): 100
phytotoxicity rating AMARE ([13]; 250 g ai/ha): 100
phytotoxicity rating CHEAL ([14]; 63 g ai/ha): 100
phytotoxicity rating CHEAL ([14]; 250 g ai/ha): 100
phytotoxicity rating ECHCG ([15]; 63 g ai/ha): 30
phytotoxicity rating ECHCG ([15]; 250 g ai/ha): 50
phytotoxicity rating SETVI ([16]; 63 g ai/ha): 90
phytotoxicity rating SETVI ([16]; 250 g ai/ha): 95
phytotoxicity rating DIGSA ([17]; 63 g ai/ha): 40
phytotoxicity rating DIGSA ([17]; 250 g ai/ha): 60
phytotoxicity rating CASOB ([18]; 63 g ai/ha): 100
phytotoxicity rating CASOB ([18]; 250 g ai/ha): 100
phytotoxicity rating IPOHE ([19]; 63 g ai/ha): 100
phytotoxicity rating IPOHE ([19]; 250 g ai/ha): 80

— patent publication US6355799B1, “Substituted benzene compounds, process for their preparation, and herbicidal and defoliant compositions containing them” (ISK Americas Incorporated, priority 1997, dated 2002)
